From patent publication US11667629B2, “Isoxazole derivative, preparation method therefor, and use thereof” (SICHUAN KELUN-BIOTECH BIOPHARMACEUTICAL CO., LTD., priority 2017, dated 2023) come the findings set out here.

Each structure is given as a SMILES string.

For data set [1], the target named is T1, FXR (Homo sapiens, UniProt Q96RI1).
T1 construct: purchased Invitrogen
Kind of data set: Bile acid receptor FXR coactivator binding assay (LanthaScreen TR-FRET). The conditions noted are these: for EC50: TR-FRET coactivator assay, four-parameter fit, read-out: EC50 of the compounds on FXR; for Emax: read-out: Relative activation effect. The data set is classed as biochemical. As to the method:
The Invitrogen⋅LanthaScreen™ TR-FRET Farnesoid X Receptor Coactivator Assay kit was employed to determine the activation effect of the compounds on FXR.
After the receptor was incubated with the test compound at various concentrations at room temperature, the fluorescent-labeled coactivator short peptides and terbium-labeled antibody were added, and the FRET signal was detected after the reaction was complete at room temperature. The group without the receptor protein was employed as a blank, the activation effect (EC50) and maximum activation effect signal value (Emax) of the test compounds on FXR were calculated according to the four-parameter fitting equation: y=E min+(E max−E min)/(1+(x/EC50)^(−Hillslope))
On the technique in general: TR-FRET usually uses a lanthanide donor and a delayed reading to cut background.

For data set [2], the target named is T2, FXR (Homo sapiens, UniProt Q96RI1).
T2 construct: expressed in transfected cells; host or cells: HEK293
T2 sequence (Q96RI1 1-486): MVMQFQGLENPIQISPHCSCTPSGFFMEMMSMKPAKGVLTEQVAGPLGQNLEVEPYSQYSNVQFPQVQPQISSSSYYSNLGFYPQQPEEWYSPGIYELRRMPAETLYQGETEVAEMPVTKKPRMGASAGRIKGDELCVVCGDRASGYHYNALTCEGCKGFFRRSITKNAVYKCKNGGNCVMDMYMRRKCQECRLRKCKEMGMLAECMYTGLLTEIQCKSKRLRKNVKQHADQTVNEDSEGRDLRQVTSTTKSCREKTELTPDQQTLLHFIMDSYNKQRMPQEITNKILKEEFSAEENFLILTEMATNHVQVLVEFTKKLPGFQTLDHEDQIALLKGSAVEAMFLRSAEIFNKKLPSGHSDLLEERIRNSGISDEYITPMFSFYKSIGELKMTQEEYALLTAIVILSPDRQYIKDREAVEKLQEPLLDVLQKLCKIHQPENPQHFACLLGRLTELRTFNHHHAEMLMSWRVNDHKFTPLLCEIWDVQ
Kind of data set: Luciferase reporter gene assay (HEK293 cotransfected with FXR and human BSEP luciferase reporter). The data set is classed as cell-based. The conditions noted are these: for EC50: HEK293, 18 hours incubation; for Emax: HEK293, maximum activation effect, relative signal percentage, blank well = 100%. The method, then:
Human embryonic kidney cells HEK293 were cultured in a DMEM medium containing 10% FBS. Plasmids were cotransfected to allow the cells to have over expression of FXR and human BSEP luciferase reporter genes. The transfected cells were digested, resuspended, counted, and plated in a multi-well plate. 10 μL of the test compound at various concentrations was added to the multi-well plate to result in final concentrations of 64 μM, 16 μM, 4 μM, 1 μM, 0.25 μM, 0.0625 μM, 0.0156 μM, 0.0039 μM, 0.000975 μM, 0.000244 μM, 0 μM, and the final concentration of DMSO was 0.5%. After the test compound was incubated with the cells for 18 hours, the Brigh-Glo™ detection reagent was added, and the chemical light unit value (RLU) was detected by a multifunctional automatic microplate reader. Taking the signal value of the blank well (without the test compound) as 100%, the relative signal percentage (%) at each concentration of the test compound was calculated. The SigmaPlot 10 software was employed to fit the EC50 and the maximum activation effect Emax (relative signal percentage) of the test compounds using a four-parameter model.
A general note: Reporter assays use an easily measured gene product as a stand-in for the process of interest.

The nature of data set [3]: Pharmacokinetics (PK) and liver tissue distribution in rats. The class given is in vivo, rat. The method, then: The test compound was administered to male SD rats by intravenous (IV) and by gavage (PO), and the pharmacokinetics and liver tissue distribution characteristics of the test compound were evaluated. The doses of the IV and PO administration were respectively 1 mg/kg and 5 mg/kg. The vehicle for IV was 5% DMSO:5% Solutol:90% physiological saline, and the vehicle for PO was 0.5% MC. Blood and liver were collected at various time points after the IV and PO administration. The blood was treated with EDTA. K2 for anticoagulation, and was centrifuged to obtain a plasma sample; the liver was homogenized and stored at −80° C. The plasma and liver samples were analyzed by LC-MS/MS after being subjected to protein precipitation.
By employing the WinNonlin 6.3 software, the pharmacokinetic parameters were calculated according to a non-compartment model.

Data set [4] in a line: Liver microsomal stability test, rat. The conditions noted are these: liver microsomes; rat liver microsome, 1 μM compound, 0.5 mg/mL, NADPH. The class given is in vitro ADME. As to the method:
(§1) The test compound (50 μL) was mixed with the liver microsome (100 μL) of each species, after pre-incubation at 37° C. for 5 minutes, NADPH (50 μL) was added, and the incubation was performed for 0, 30, and 60 minutes. The incubation concentrations of the test compound, NADPH, and liver microsomal enzyme were 1 μM, 1 mM, and 0.5 mg/mL, respectively. Ice-cold acetonitrile (200 μL) was added to stop the reaction, and an appropriate volume of the internal standard was then added. After the vortex and centrifugation process, the supernatant was obtained and detected.
(§2) LC-MS/MS, wherein the mass spectrometer was API 5500, and the liquid chromatograph was Shimadzu LC-30AD system. The chromatographic column was Hypersil GOLD C18, 1.9 μm particle size, 50×2.1 mm; mobile phase A was water+0.1% formic acid, phase B was acetonitrile; flow rate was 0.55 mL/min, and column temperature was 40° C. The ion source was an ESI source positive ion mode, and the scanning mode is multiple reaction monitoring (MRM).
(§3) By determining the concentrations of the samples at different incubation time, the rate constant was obtained by plotting “Ln (amount of the remained drug %)” versus “incubation time”. The half-life and liver clearance rate of the drug were then calculated, and were used to evaluate the metabolic stability of the drug in liver microsome.
(Liver microsomes are a subcellular fraction often used to study metabolism.)

The nature of data set [5]: Liver microsomal stability test, mouse. The data set is classed as in vitro ADME. The conditions noted are these: liver microsomes; mouse liver microsome, 1 μM compound, 0.5 mg/mL, NADPH. The method, then: as §1, §2, §3
Data set [6] in a line: Liver microsomal stability test, dog. The class given is in vitro ADME. The conditions noted are these: liver microsomes; dog liver microsome, 1 μM compound, 0.5 mg/mL, NADPH. The method, then:
as §1, §2, §3

A short description of data set [7]: Liver microsomal stability test, human. The class given is in vitro ADME. The method, then:
as §1, §2, §3

Setting [8] is: IV, 1 mg/kg, male SD rats, plasma.
[9] abbreviates: PO, 5 mg/kg, male SD rats, blood.
Where [10] appears, read: PO, 5 mg/kg, male SD rats, liver.

Usually EC50 stands for the concentration at which the effect is half-maximal. In general, Cmax refers to the maximum level reached in the sampled fluid or tissue. Usually CLint scaled stands for the rate of metabolic loss divided by the concentration. High values mean faster metabolism, low ones greater metabolic stability. Usually half-life stands for the time needed for the level to fall by half in the phase considered. A higher half-life goes with slow decline.

Consider `O=C(O)c1ccc(-c2csc(N3CCC(OCc4c(-c5c(Cl)cccc5Cl)noc4C4CC4)CC3)n2)cc1` [Compound C2, 4-(2-(4-((5-cyclopropyl-3-(2,6-dichlorophenyl)isoxazol-4-yl)methoxy)piperidin-1-yl)thiazol-4-yl)benzoic acid], for which, on FXR [1], the EC50 amounted to 12 ± 4 nM and the Emax came out at 101%. At FXR [2], this molecule gave an EC50 of 20 ± 10 nM and an Emax of 248%. In data set [3] (setting [8]), this molecule showed an AUClast of 2409 ± 108 ng·h/mL and a Cmax of 4343 ± 172 ng/mL. Besides, in data set [3] (setting [9]), the “AUClast (blood)” value was determined as 1177 ± 304 ng·h/mL and the “Cmax (blood)” value is 252 ± 30 ng/mL. Besides, in data set [3] (setting [10]), the “AUClast (liver)” value came out at 14941 ± 4276 ng·h/g and the “Cmax (liver)” value worked out at 3367 ± 830 ng/g. Further, in data set [3] (PO, 5 mg/kg, rats, liver versus blood exposure), the liver enrichment entry is “significant liver enrichment effect”.
Consider `Cn1nc(-c2ccc(N3CCC(OCc4c(-c5c(Cl)cccc5Cl)noc4C4CC4)CC3)cc2)cc1C(=O)O` [Compound C4, 3-(4-(4-((5-cyclopropyl-3-(2,6-dichlorophenyl)isoxazol-4-yl)methoxy)piperidin-1-yl)phenyl)-1-methyl-1H-pyrazole-5-carboxylic acid], for which, at FXR [1], the EC50 was 10 ± 1 nM and the Emax is 102%. At FXR [2], this molecule registered an EC50 of 40 ± 10 nM and an Emax of 255%.
The like results for `O=C(O)c1ccc(-c2csc(N3[C@@H]4CC[C@H]3C[C@@H](OCc3c(-c5ccccc5OC(F)(F)F)noc3C3CC3)C4)n2)s1` [Compound C35, 5-(2-((1R,3r,5S)-3-((5-cyclopropyl-3-(2-(trifluoromethoxy)phenyl)isoxazol-4-yl)methoxy)-8-azabicyclo[3.2.1]octan-8-yl)thiazol-4-yl)thiophene-2-carboxylic acid] were, in that order, 13 ± 3 nM, 152%, 91 ± 38 nM and 378%.
The like results for `Cc1cc(C(=O)O)ccc1-c1csc(N2[C@@H]3CC[C@H]2C[C@@H](OCc2c(-c4c(Cl)cccc4Cl)noc2C2CC2)C3)n1` [Compound C37, 4-(2-((1R,3r,5S)-3-((5-cyclopropyl-3-(2,6-dichlorophenyl)isoxazol-4-yl)methoxy)-8-azabicyclo[3.2.1]octan-8-yl)thiazol-4-yl)-3-methylbenzoic acid] were, in that order, 15 ± 1 nM, 139%, 6 ± 2 nM and 411%.
For `O=C(O)c1ccc(-c2csc(N3[C@@H]4CC[C@H]3C[C@@H](OCc3c(-c5ccccc5OC(F)(F)F)noc3C3CC3)C4)n2)cc1F` [Compound C44, 4-(2-((1R,3r,5S)-3-((5-cyclopropyl-3-(2-(trifluoromethoxy)phenyl)isoxazol-4-yl)methoxy)-8-azabicyclo[3.2.1]octan-8-yl)thiazol-4-yl)-2-fluorobenzoic acid], in that order: 22 ± 5 nM, 137%, 21 ± 6 nM and 322%.
Turning to `O=C(O)c1ccc(-c2csc(N3[C@@H]4CC[C@H]3C[C@@H](OCc3c(-c5ccccc5OC(F)(F)F)noc3C3CC3)C4)n2)cc1C(F)(F)F` [Compound C46, 4-(2-((1R,3r,5S)-3-((5-cyclopropyl-3-(2-(trifluoromethoxy)phenyl)isoxazol-4-yl)methoxy)-8-azabicyclo[3.2.1]octan-8-yl)thiazol-4-yl)-2-(trifluoromethyl)benzoic acid], the EC50 at FXR [1] worked out at 2 ± 1 nM; at FXR [2] it was 14 ± 5 nM. For the same molecule, the Emax at FXR [1] came out at 196%; at FXR [2], 301%. In addition, the CLint scaled at 1 μM in data set [4] came to 0.96 mL/min/kg; in data set [5] it was 15.3 mL/min/kg; in data set [6], 8.03 mL/min/kg. For the same molecule, the half-life at 1 μM in data set [4] is 963 min; in data set [5] it was 150 min; in data set [6] it was 259 min. The “clearance rate in human liver microsome” value in data set [7] stood at 14.9 mL/min/kg.
Regarding `O=C(O)c1ccc(-c2csc(N3[C@@H]4CC[C@H]3C[C@@H](OCc3c(-c5ccccc5OC(F)(F)F)noc3C3CC3)C4)n2)cn1` [Compound C50, 5-(2-((1R,3r,5S)-3-((5-cyclopropyl-3-(2-(trifluoromethoxy)phenyl)isoxazol-4-yl)methoxy)-8-azabicyclo[3.2.1]octan-8-yl)thiazol-4-yl)picolinic acid], on FXR [1], the EC50 came to 31 ± 8 nM and the Emax came out at 177%.
